Source: ChEMBL document CHEMBL1147167, “New 1,3-dioxolane and 1,3-dioxane derivatives as effective modulators to overcome multidrug resistance” (2007)

Test system: Caco-2
Test: Antiproliferative activity against human Caco-2 cells assessed as cell viability by MTT assay after 48 hrs
Format: functional
Conditions: not given

Question: With `c1ccc(C(CCCCN2CCN(CCCOc3ccc(C4O[C@@H](c5ccccc5)[C@H](c5ccccc5)O4)cc3)CC2)c2ccccc2)cc1` (relative stereo) as the molecule, how does the IC10 read?
Answer: 15.9 µM

Question: For `CN1CCN(CCCOc2ccc(C3O[C@H](c4ccccc4)[C@@H](c4ccccc4)O3)cc2)CC1` (relative stereo), which IC10 is on record?
Answer: 19.5 µM

Same assay, conditions: Homo sapiens, Caco-2, 48 h; read-out: IC10

Question: How did the IC10 turn out when `c1ccc(C(CCCCN2CCN(CCCOc3ccc(C4O[C@@H](c5ccccc5)[C@H](c5ccccc5)O4)cc3)CC2)c2ccccc2)cc1` was run?
Answer: 17.1 µM

Question: Which IC10 does the source give for `CN1CCN(CCCOc2ccc(C3OC(c4ccccc4Cl)C(c4ccccc4Cl)O3)cc2)CC1` (configuration not stated) here?
Answer: 19.5 µM

Question: How did the IC10 turn out when `c1ccc(C(CCCCN2CCN(CCCCOc3ccc(C4OC(c5ccccc5)C(c5ccccc5)O4)cc3)CC2)c2ccccc2)cc1` (configuration not stated) was run?
Answer: 17.5 µM

Question: How did the IC10 turn out when `c1ccc(C(CCN2CCN(CCCOc3ccc(C4OC(c5ccccc5)C(c5ccccc5)O4)cc3)CC2)c2ccccc2)cc1` (configuration not stated) was run?
Answer: 18.5 µM

Question: `c1ccc(C2OC(c3ccc(OCCCN4CCCCC4)cc3)OC2c2ccccc2)cc1` (configuration not stated) was tested. Which IC10 did it give?
Answer: 15.3 µM

Question: With `CN1CCN(CCCCOc2ccc(C3OC(c4ccccc4)C(c4ccccc4)O3)cc2)CC1` (configuration not stated) as the molecule, how does the IC10 read?
Answer: 13.8 µM

Question: How did the IC10 turn out when `OCCN1CCN(CCCOc2ccc(C3OC(c4ccccc4)C(c4ccccc4)O3)cc2)CC1` (configuration not stated) was run?
Answer: 76.6 µM

Question: For `CN1CCN(CCCOc2ccc(C3O[C@H](c4ccccc4)[C@H](c4ccccc4)O3)cc2)CC1` (some centres not stated), which IC10 is on record?
Answer: 21.1 µM

Question: `CC1OC(c2ccccc2)(c2ccccc2)OCC1CN1CCN(CCCCC(c2ccccc2)c2ccccc2)CC1` (configuration not stated) was tested. Which IC10 did it give?
Answer: 6.1 µM

Question: `CC1OC(c2ccccc2)(c2ccccc2)OCC1CN1CCN(C)CC1` (configuration not stated) was tested. Which IC10 did it give?
Answer: 9.7 µM

Question: With `c1ccc(C(CCCCN2CCN(CCOc3ccc(C4OC(c5ccccc5)C(c5ccccc5)O4)cc3)CC2)c2ccccc2)cc1` (configuration not stated) as the molecule, how does the IC10 read?
Answer: 14.7 µM

Question: `c1ccc(C(CCCN2CCN(CCCOc3ccc(C4OC(c5ccccc5)C(c5ccccc5)O4)cc3)CC2)c2ccccc2)cc1` (configuration not stated) was tested. Which IC10 did it give?
Answer: 12.4 µM

Question: How did the IC10 turn out when `c1ccc(C(CCCCN2CCN(CCCOc3ccc(C4O[C@H](c5ccccc5)[C@H](c5ccccc5)O4)cc3)CC2)c2ccccc2)cc1` (some centres not stated) was run?
Answer: 16.8 µM

Question: How did the IC10 turn out when `c1ccc(C2(c3ccccc3)OCC(CCCCN3CCCCC3)O2)cc1` (configuration not stated) was run?
Answer: 18.1 µM

Question: With `CN1CCN(CCCOc2ccc(C3O[C@H](c4ccccc4)[C@@H](c4ccccc4)O3)cc2)CC1` as the molecule, how does the IC10 read?
Answer: 20.4 µM

Question: For `CN1CCN(CCCOc2ccc(C3OC(c4ccc(F)cc4)C(c4ccc(F)cc4)O3)cc2)CC1` (configuration not stated), which IC10 is on record?
Answer: 18.8 µM

Question: How did the IC10 turn out when `c1ccc(C2OC(c3ccc(OCCCN4CCN(C(c5ccccc5)c5ccccc5)CC4)cc3)OC2c2ccccc2)cc1` (configuration not stated) was run?
Answer: 16.4 µM

Question: How did the IC10 turn out when `c1ccc(C(CCCCN2CCN(CCCCC3COC(c4ccccc4)(c4ccccc4)O3)CC2)c2ccccc2)cc1` (configuration not stated) was run?
Answer: 5.85 µM

Question: How did the IC10 turn out when `c1ccc(C(CCCCN2CCN(CCCOc3ccc(C4O[C@H](c5ccccc5)[C@@H](c5ccccc5)O4)cc3)CC2)c2ccccc2)cc1` was run?
Answer: 16.2 µM

Question: `c1ccc(C(CN2CCN(CCCOc3ccc(C4OC(c5ccccc5)C(c5ccccc5)O4)cc3)CC2)c2ccccc2)cc1` (configuration not stated) was tested. Which IC10 did it give?
Answer: 6.1 µM

Question: How did the IC10 turn out when `OCCN1CCN(CCCCC2COC(c3ccccc3)(c3ccccc3)O2)CC1` (configuration not stated) was run?
Answer: 98.3 µM

Question: For `CN1CCN(CCCCC2COC(c3ccccc3)(c3ccccc3)O2)CC1` (configuration not stated), which IC10 is on record?
Answer: 10.5 µM

Question: For `CN1CCN(CCOc2ccc(C3OC(c4ccccc4)C(c4ccccc4)O3)cc2)CC1` (configuration not stated), which IC10 is on record?
Answer: 8.6 µM

Question: For `CN1CCN(CCCOc2ccc(C3O[C@@H](c4ccccc4)[C@H](c4ccccc4)O3)cc2)CC1`, which IC10 is on record?
Answer: 19.9 µM

Question: How did the IC10 turn out when `CN1CCN(CCCN2c3ccccc3Sc3ccc(C(F)(F)F)cc32)CC1` [TRIFLUOPERAZINE] was run?
Answer: 11.3 µM
